Consider three compounds from paper PMC8566089 (Bioorganic Chemistry, 2021).

Series [1] relates to A431 (squamous skin) cancer cell line. As to the kind of experiment: MTT antiproliferative assay, A431. Particulars: for IC50: Homo sapiens, A-431, 72 h, read-out: IC50 ± SE, A431; for SI (selectivity index), A431: IC50 of RPE1 relative to that of A431. The format is cell-based.
Series [2] concerns MCF7 (breast) cancer cell line. As to the kind of experiment: MTT antiproliferative assay, MCF7. The format is cell-based. Particulars: for IC50: Homo sapiens, MCF7, 72 h, read-out: IC50 ± SE, MCF7; for SI (selectivity index), MCF7: IC50 of RPE1 relative to that of MCF7.
Series [3] concerns HCT116 (colon) cancer cell line. Briefly: MTT antiproliferative assay, HCT116. Particulars: for IC50: Homo sapiens, HCT-116, 72 h, read-out: IC50 ± SE, HCT116; for SI (selectivity index), HCT116: IC50 of RPE1 relative to that of HCT116. The format is cell-based.
The subject of series [4] is RPE1 (normal human immortalized retinal pigment epithelial cell line). Briefly: MTT assay against normal RPE1 cells. The format is cell-based. The note with it: RPE-1, read-out: IC50 ± SE, RPE1.
Series [5] deals with T1, VEGFR-2 (Homo sapiens, UniProt P35968). Briefly: VEGFR-2 Western blot in MCF7. The note with it: for VEGFR2 MCF7 % Inhibition: Western blot at MTT-IC50; for VEGFR2 MCF7 RQ (relative quantification): Western blot at MTT-IC50, control RQ 3.725. Type of series: cell-based.
T1 sequence (P35968 20-1356): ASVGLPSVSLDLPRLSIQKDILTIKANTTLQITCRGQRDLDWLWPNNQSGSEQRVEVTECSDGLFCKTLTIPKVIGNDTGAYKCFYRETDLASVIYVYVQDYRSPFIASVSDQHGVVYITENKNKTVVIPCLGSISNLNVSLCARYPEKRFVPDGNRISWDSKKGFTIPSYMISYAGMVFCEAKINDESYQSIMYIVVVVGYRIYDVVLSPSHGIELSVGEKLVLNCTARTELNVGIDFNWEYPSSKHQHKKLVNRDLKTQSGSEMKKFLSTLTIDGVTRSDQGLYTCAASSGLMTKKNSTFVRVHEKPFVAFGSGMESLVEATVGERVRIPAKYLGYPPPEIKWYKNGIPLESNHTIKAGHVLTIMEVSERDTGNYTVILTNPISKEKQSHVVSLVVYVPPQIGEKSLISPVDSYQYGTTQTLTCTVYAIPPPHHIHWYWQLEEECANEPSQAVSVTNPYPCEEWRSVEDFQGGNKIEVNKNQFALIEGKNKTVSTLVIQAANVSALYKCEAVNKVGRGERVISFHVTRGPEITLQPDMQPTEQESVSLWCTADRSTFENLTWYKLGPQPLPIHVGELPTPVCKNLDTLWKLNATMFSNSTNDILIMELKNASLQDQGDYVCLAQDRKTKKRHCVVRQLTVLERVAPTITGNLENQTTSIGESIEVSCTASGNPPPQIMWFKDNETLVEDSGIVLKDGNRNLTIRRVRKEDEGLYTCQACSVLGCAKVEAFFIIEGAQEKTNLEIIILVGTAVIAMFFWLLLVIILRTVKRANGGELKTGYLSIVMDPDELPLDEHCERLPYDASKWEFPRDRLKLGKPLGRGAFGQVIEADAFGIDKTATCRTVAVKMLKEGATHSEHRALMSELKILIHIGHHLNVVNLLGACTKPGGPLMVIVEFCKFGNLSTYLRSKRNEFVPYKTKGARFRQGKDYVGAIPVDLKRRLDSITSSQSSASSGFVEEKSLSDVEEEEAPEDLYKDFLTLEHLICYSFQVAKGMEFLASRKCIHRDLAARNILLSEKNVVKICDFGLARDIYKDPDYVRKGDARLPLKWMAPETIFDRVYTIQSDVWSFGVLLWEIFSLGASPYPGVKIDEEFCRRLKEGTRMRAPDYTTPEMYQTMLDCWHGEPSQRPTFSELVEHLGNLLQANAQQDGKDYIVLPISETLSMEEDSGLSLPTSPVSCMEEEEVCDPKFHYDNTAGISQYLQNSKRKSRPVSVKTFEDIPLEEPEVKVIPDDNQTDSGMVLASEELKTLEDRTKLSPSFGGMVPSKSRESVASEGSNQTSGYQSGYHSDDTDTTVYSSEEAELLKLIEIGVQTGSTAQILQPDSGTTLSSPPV
The target of series [6] is T1, VEGFR-2. As to the kind of experiment: VEGFR-2 Western blot in HCT116. The format is cell-based. The note with it: for VEGFR2 HCT116 % Inhibition: Western blot at MTT-IC50; for VEGFR2 HCT116 RQ (relative quantification): Western blot at MTT-IC50, control RQ 3.817.
For series [7], the target named is T2, EGFR (Homo sapiens, UniProt P00533). Briefly: EGFR Western blot in MCF7. Type of series: cell-based. Particulars: for EGFR MCF7 % Inhibition: Western blot at MTT-IC50; for EGFR MCF7 RQ (relative quantification): Western blot at MTT-IC50, control RQ 4.226.
T2 sequence (P00533 25-1210): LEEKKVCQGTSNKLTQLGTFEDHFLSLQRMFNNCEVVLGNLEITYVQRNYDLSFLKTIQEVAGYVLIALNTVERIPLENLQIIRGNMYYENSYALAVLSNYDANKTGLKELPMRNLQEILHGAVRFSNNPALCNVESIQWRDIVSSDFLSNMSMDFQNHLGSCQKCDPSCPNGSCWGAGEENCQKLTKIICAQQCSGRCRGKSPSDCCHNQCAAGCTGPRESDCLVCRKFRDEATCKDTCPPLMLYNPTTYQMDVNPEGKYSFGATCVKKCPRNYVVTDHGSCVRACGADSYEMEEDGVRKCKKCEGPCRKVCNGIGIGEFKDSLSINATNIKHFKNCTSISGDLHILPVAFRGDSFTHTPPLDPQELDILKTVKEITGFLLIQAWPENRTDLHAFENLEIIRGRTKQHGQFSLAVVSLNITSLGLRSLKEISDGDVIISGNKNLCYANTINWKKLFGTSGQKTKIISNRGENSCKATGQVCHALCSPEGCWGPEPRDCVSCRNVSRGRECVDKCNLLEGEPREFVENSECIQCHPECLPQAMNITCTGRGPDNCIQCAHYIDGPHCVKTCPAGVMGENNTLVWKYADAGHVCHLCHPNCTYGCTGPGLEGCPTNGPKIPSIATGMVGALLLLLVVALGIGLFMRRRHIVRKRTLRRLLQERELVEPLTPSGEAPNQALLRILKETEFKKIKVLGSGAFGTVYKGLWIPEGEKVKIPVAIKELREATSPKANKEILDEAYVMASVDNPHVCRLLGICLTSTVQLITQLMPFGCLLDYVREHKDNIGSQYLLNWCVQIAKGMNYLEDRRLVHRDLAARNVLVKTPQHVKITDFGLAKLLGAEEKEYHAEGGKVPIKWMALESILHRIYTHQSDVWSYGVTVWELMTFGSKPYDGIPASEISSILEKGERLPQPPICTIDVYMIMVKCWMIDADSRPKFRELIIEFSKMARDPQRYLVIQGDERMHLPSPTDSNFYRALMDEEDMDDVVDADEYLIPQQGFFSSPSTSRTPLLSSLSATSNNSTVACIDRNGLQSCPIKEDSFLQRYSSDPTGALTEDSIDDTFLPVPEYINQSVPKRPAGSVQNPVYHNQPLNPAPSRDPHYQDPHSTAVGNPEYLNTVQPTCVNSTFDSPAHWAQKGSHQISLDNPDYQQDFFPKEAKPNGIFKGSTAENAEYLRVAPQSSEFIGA
The target in series [8] is T2, EGFR. Briefly: EGFR Western blot in HCT116. Type of series: cell-based. The note with it: for EGFR HCT116 % Inhibition: Western blot at MTT-IC50; for EGFR HCT116 RQ (relative quantification): Western blot at MTT-IC50, control RQ 4.0382.
The next series has as its target T3, COX-1 (Ovis aries, UniProt P05979).
T3 sequence (P05979 25-600): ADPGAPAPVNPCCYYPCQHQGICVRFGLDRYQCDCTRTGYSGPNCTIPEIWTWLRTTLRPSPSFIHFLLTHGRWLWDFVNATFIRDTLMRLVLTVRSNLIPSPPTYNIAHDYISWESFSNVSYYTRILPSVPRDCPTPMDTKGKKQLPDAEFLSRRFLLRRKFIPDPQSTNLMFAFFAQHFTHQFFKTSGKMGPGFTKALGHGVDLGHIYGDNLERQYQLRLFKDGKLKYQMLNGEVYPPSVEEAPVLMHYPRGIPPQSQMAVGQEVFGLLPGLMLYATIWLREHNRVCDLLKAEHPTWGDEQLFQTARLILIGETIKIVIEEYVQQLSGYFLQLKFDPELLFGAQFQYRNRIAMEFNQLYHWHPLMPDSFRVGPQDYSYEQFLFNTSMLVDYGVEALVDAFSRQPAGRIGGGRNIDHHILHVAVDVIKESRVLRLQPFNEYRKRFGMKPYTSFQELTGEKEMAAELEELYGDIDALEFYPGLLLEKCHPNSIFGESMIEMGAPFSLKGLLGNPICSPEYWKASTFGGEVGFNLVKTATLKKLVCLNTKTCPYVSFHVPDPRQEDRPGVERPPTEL
Briefly: COX-1 inhibitor screening kit. The format is biochemical.

Another series addresses T4, COX-2 (Homo sapiens, UniProt P35354).
T4 sequence (P35354 18-604): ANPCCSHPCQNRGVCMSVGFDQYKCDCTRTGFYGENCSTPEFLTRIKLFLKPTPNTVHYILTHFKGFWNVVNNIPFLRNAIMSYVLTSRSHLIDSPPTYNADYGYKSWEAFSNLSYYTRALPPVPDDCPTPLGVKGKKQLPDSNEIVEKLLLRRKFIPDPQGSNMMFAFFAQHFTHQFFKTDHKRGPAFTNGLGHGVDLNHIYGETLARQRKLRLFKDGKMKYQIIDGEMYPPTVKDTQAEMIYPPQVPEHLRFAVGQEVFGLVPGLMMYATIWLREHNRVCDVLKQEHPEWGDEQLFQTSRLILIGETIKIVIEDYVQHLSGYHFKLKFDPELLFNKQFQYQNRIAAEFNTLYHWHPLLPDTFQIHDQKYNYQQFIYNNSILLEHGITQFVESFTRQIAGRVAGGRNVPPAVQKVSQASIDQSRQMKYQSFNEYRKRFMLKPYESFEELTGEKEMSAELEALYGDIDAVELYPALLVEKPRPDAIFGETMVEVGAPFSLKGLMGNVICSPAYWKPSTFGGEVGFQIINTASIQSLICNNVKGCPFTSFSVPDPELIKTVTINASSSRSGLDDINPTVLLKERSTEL
Briefly: COX-2 inhibitor screening kit. The format is biochemical.

Series [9] deals with SARS-CoV-2 (hCoV-19/Egypt/NRC-03/2020). Particulars: SARS-CoV-2 / VERO-E6.

The structures appear in SMILES notation.

As to `CC(=O)Oc1ccccc1C(=O)N1C/C(=C\c2ccccc2)C(=O)/C(=C/c2ccccc2)C1` [Compound 5a, 2-[3,5-Di((E)-benzylidene)-4-oxopiperidine-1-carbonyl]phenyl acetate], in [1], the IC50 came out at 4490 ± 410 nM and the “SI (selectivity index), A431” value amounted to 2.4. For the same compound, in series [2], the IC50 came out at 4740 ± 380 nM and the “SI (selectivity index), MCF7” value was 2.25. For the same compound, in [3], the IC50 was found to be 4720 ± 420 nM and the “SI (selectivity index), HCT116” value came to 2.25. Moreover, the IC50 in [4] was 10600 ± 1040 nM. At VEGFR-2 [5], the “VEGFR2 MCF7 % Inhibition” value came to 64.6% and the “VEGFR2 MCF7 RQ (relative quantification)” value is 1.32. For the same compound, on VEGFR-2 [6], the “VEGFR2 HCT116 % Inhibition” value is 67.5% and the “VEGFR2 HCT116 RQ (relative quantification)” value came out at 1.24. At EGFR [7], the “EGFR MCF7 % Inhibition” value was 90.3% and the “EGFR MCF7 RQ (relative quantification)” value was found to be 0.41. In addition, at EGFR [8], the “EGFR HCT116 % Inhibition” value is reported as 69.3% and the “EGFR HCT116 RQ (relative quantification)” value was 1.24. The compound also registered an IC50 on COX-1 of 249 nM. On COX-2, half-maximal inhibition (IC50) required 1550 nM and the “SI = IC50(COX-1)/IC50(COX-2)” value is on record as 0.161. Further, the “SI = CC50/IC50” value in [9] stood at 18.5.

As for `CC(=O)Oc1ccc(Cl)cc1C(=O)N1C/C(=C\c2ccc(Br)cc2)C(=O)/C(=C/c2ccc(Br)cc2)C1` [Compound 5l, 2-[3,5-Bis((E)-4-bromobenzylidene)-4-oxopiperidine-1-carbonyl]-4-chlorophenyl acetate], in series [1], the IC50 worked out at 667 ± 70 nM and the “SI (selectivity index), A431” value was 10.8. Besides, in series [2], the IC50 turned out to be 4150 ± 370 nM and the “SI (selectivity index), MCF7” value stood at 1.74. Further, in series [3], the IC50 amounted to 1150 ± 130 nM and the “SI (selectivity index), HCT116” value is listed as 6.27. Besides, the IC50 in series [4] was found to be 7230 ± 490 nM. Also, at VEGFR-2 [5], the “VEGFR2 MCF7 % Inhibition” value amounted to 70.5% and the “VEGFR2 MCF7 RQ (relative quantification)” value was determined as 1.1. Also, on VEGFR-2 [6], the “VEGFR2 HCT116 % Inhibition” value is given as 76.4% and the “VEGFR2 HCT116 RQ (relative quantification)” value was found to be 0.9. Further, at EGFR [7], the “EGFR MCF7 % Inhibition” value amounted to 66.9% and the “EGFR MCF7 RQ (relative quantification)” value stood at 1.4. Besides, on EGFR [8], the “EGFR HCT116 % Inhibition” value is recorded as 66.9% and the “EGFR HCT116 RQ (relative quantification)” value is listed as 1.336. In addition, 590 nM corresponded to half-maximal inhibition at COX-1 (IC50). Moreover, at COX-2, the half-maximal inhibitory concentration (IC50) amounted to 1010 nM and the “SI = IC50(COX-1)/IC50(COX-2)” value is 0.582. For the same compound, the “SI = CC50/IC50” value in [9] was 11.1.

Turning to `CC(=O)Oc1ccccc1C(=O)N1C/C(=C\c2ccc(Br)cc2)C(=O)/C(=C/c2ccc(Br)cc2)C1` [Compound 5d, 2-[3,5-Bis((E)-4-bromobenzylidene)-4-oxopiperidine-1-carbonyl]phenyl acetate], in series [1], the IC50 is 986 ± 80 nM and the “SI (selectivity index), A431” value was found to be 9.8. For the same compound, in series [2], the IC50 amounted to 4580 ± 390 nM and the “SI (selectivity index), MCF7” value turned out to be 2.11. For the same compound, in [3], the IC50 is 3600 ± 290 nM and the “SI (selectivity index), HCT116” value is 2.69. For the same compound, the IC50 in [4] stood at 9680 ± 570 nM. At VEGFR-2 [5], the “VEGFR2 MCF7 % Inhibition” value was 48.7% and the “VEGFR2 MCF7 RQ (relative quantification)” value is given as 1.91. For the same compound, on VEGFR-2 [6], the “VEGFR2 HCT116 % Inhibition” value came to 60.7% and the “VEGFR2 HCT116 RQ (relative quantification)” value turned out to be 1.5. Further, at EGFR [7], the “EGFR MCF7 % Inhibition” value was 64.0% and the “EGFR MCF7 RQ (relative quantification)” value is 1.52. At EGFR [8], the “EGFR HCT116 % Inhibition” value was 65.9% and the “EGFR HCT116 RQ (relative quantification)” value is on record as 1.377. Further, at COX-1, inhibition was half-maximal at 134 nM (IC50). On COX-2, half-maximal inhibition (IC50) was put at 1110 nM and the “SI = IC50(COX-1)/IC50(COX-2)” value was 0.121. The “SI = CC50/IC50” value in series [9] stood at 54.7.
